Measurements reported in patent US20190077840A1, “SELECTIVE MCL-1 BINDING PEPTIDES” (MASSACHUSETTS INSTITUTE OF TECHNOLOGY, priority 2015, published 2019).
Numbered stars: 1 amine (or outer) side, 2 acyl side, 3 side chain; on linkers, the order of the positions; unused ones are H or OH. Bridge positions count the residues as written; N and C are the ends. Square brackets hold non-standard residues; d marks the D form. Peptide text beside a SMILES is read from it. ξ: configuration not given here. ξαMeNle(6-ylidene) = CC(CCCC=[*:3])(N[*:1])C(=O)[*:2]; Cha = N[C@@H](CC1CCCCC1)C(=O)O; Nle = CCCC[C@H](N)C(=O)O; Aib = CC(C)(N)C(=O)O

Tests used:
[1] = tested on: Bax/Bak deficient cells; test: Whole-cell BH3 profiling in Bax/Bak deficient cells (BBDL); format: cell-based; conditions: Bax/Bak independent activity indicates non-specific toxicity
[2] = Circular dichroism spectroscopy (helicity); format: physicochemical; conditions: more helical than MS1
Description: (§1) The standard errors reported are over three experiments.
The secondary structure of selected stapled peptides was assessed by circular dichroism (CD) spectroscopy (FIG. 1(c)). […] Therefore, the increases in helicity can be attributed to both helix-inducing substitutions: Aib at 2e and Cha at 3a (Armstrong, K. M.; Fairman, R.; Baldwin, R. L. J. Mol Biol. 1993, 230 (1), 284. and Venkatraman, J.; Shankaramma, S. C.; Balaram, P. Chem. Rev. 2001, 101 (10), 3131).

[3] = molecular target: Mcl-1 (Homo sapiens, UniProt Q07820); test: Competition fluorescence polarization/anisotropy assay with fluoresceinated Bim BH3 peptide for binding to Mcl-1
Description: as §1
Position 2e is usually conserved as small (alanine, glycine, serine) in natural BH3 sequences.

[4] = tested on: Mcl-1/Myc 2640; format: cell-based, murine
Description: (§2) A whole-cell BH3 profiling experiment quantifies the dependence of cancer cell mitochondrial integrity on specific anti-apoptotic proteins and can be predictive of cellular responses to chemotherapy (Ryan, J. A.; Brunelle, J. K.; Letai, A. Proc. Natl. Acad. Sci. 2010, 107 (29), 12895 and Ryan, J. A; Letai, A. Methods 2013, 61(2), 156). In this assay, permeabilized cells are stained with dye JC1 to monitor mitochondrial membrane integrity in response to increasing doses of BH3 peptides. We used this assay to test the specificity of our Mcl-1-binding stapled peptides in cell lines with different established dependencies on Bcl-xL and Mcl-1. Mcl-1/Myc 2640 is an engineered murine leukemia cell line overexpressing murine Mcl-1 and Myc, and MDA-MB 231 is a human breast cancer cell line with a primed Bcl-xL-dependent pro-file (Brunelle, J. K.; Ryan, J.; Yecies, D.; Opferman, J. T.; Letai, A. J Cell Biol. 2009, 187 (3), 429 and Ryan, J. A.; Brunelle, J. K.; Letai, A. Proc. Natl. Acad. Sci. 2010, 107 (29), 12895). By BH3 profiling using native BH3 peptides from BAD and NOXAA, we confirmed cell line dependencies on these anti-apoptotic proteins (FIG. 3). […] Mcl-1 2640 cell line is dependent on Mcl-1 whereas MDA-MB-231 is dependent on Bcl-xL, as indicated by response to NoxA and Bad, respectively. […]

[5] = tested on: chymotrypsin; test: Protease resistance: HPLC half-lives of peptides exposed to chymotrypsin
[6] = tested on: MDA-MB 231; format: cell-based, human
Description: as §2

Sequence of Mcl-1 (Q07820 whole entry): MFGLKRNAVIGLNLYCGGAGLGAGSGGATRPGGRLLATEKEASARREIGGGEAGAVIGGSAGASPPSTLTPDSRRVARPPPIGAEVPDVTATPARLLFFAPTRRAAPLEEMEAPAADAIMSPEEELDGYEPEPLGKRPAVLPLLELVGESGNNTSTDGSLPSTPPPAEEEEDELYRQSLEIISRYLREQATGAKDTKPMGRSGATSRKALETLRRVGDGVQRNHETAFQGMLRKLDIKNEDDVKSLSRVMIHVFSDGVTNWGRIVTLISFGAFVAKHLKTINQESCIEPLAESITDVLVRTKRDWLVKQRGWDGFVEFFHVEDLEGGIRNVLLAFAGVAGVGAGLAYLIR

| Mcl-1-binding affinity in comparison to MS1 [3] | EC50 [4] [nM] | half-lives (protease resistance) compared to M1d [5] | EC50 [6] [nM] | Compound | activity in Bax/Bak deficient cells [1] | helicity in solution relative to MS1 [2] [fold] |
| --- | --- | --- | --- | --- | --- | --- |
| improved | – | – | – | IWBTQGLRRLGDEIXAYYXRR [M1d] | Bax/Bak independent activity | ~3 |
| – | 30 | longer half-lives | > 5000 | CCCC[C@H](NC(=O)[C@H](Cc1c[nH]c2ccccc12)NC(=O)[C@@H](N)[C@@H](C)CC)C(=O)NC(C)(C)C(=O)N[C@@H](CCC(N)=O)C(=O)NCC(=O)N[C@@H](CC1CCCCC1)C(=O)N[C@@H](CCCNC(=N)N)C(=O)N[C@@H](CCCNC(=N)N)C(=O)N[C@@H](CC(C)C)C(=O)NCC(=O)N[C@@H](CC(=O)O)C(=O)N[C@@H](CCC(=O)O)C(=O)N[C@H](C(=O)NC1(C)CCCC=CCCCC(C)(C(=O)N[C@@H](CCCNC(=N)N)C(=O)N[C@@H](CCCNC(=N)N)C(N)=O)NC(=O)[C@H](Cc2ccc(O)cc2)NC(=O)[C@H](Cc2ccc(O)cc2)NC(=O)[C@H](C)NC1=O)[C@@H](C)CC (stereo partly shown) [M3d, IWBAibQGChaRRLGDEIXAYYXRR] (H-IW[Nle][Aib]QG[Cha]RRLGDEI[ξαMeNle(6-ylidene)]AYY[ξαMeNle(6-ylidene)]RR-NH2; staple 15-19) | – | – |
| – | – | longer half-lives | – | CCCC[C@H](NC(=O)[C@H](Cc1c[nH]c2ccccc12)NC(=O)[C@@H](N)[C@@H](C)CC)C(=O)NC(C)(C)C(=O)N[C@@H](CCC(N)=O)C(=O)NCC(=O)N[C@@H](CC(C)C)C(=O)N[C@@H](CCCNC(=N)N)C(=O)N[C@@H](CCCNC(=N)N)C(=O)N[C@@H](CC(C)C)C(=O)NCC(=O)N[C@@H](CC(=O)O)C(=O)N[C@@H](CCC(=O)O)C(=O)N[C@H](C(=O)NC1(C)CCCC=CCCCC(C)(C(=O)N[C@@H](CCCNC(=N)N)C(=O)N[C@@H](CCCNC(=N)N)C(N)=O)NC(=O)[C@H](Cc2ccc(O)cc2)NC(=O)[C@H](Cc2ccc(O)cc2)NC(=O)[C@H](C)NC1=O)[C@@H](C)CC (stereo partly shown) [M2d, IWBAibQGLRRLGDEIXAYYXRR] (H-IW[Nle][Aib]QGLRRLGDEI[ξαMeNle(6-ylidene)]AYY[ξαMeNle(6-ylidene)]RR-NH2; staple 15-19) | – | – |
